In brackets after ≈: the same amount, converted by molar mass. Like-named read-outs stand apart in the source and are kept apart here.
Key:
[1] = test system: HEK293T cells transiently transfected with empty, wildtype, R183Q, or Q209L constructs; test: MTT assay dose response curve for puromycin, 24 well plate, transiently transfected cells; type: cell-based; conditions: Homo sapiens, HEK-293T, 72 h, puromycin 3 days, read-out: Half maximal inhibitory concentration (IC50), cell number
Procedure: FIG. 1 is a plot showing response of cells as a function of puromycin concentration. HEK293T cells were transiently transfected with empty, wildtype, R183Q, or Q209L constructs and then exposed to puromycin for 3 days before cell number was assessed by MTT assay in 24 well plate.
To determine whether mutations in GNAQ conferred increased sensitivity to puromycin, an MTT (3-(4,5-dimethylthiazol-2-yl)-2,5-diphenyltetrazolium bromide) assay dose response curve was done with HEK239 cells (including standard curve and normalization) after transient transfection. Puromycin exposure in HEK293 cells transiently transfected with R183Q or Q209L (no puromycin selection) over greater than a 100 fold dose range was then tested.
HEK 293 cells (5×10^5 cells/well) in 6 well-plates were transient transfected with 1 μg of construct (pcDNA3.1-GNAQ, pcDAN3.1-R183Q and pcDNA3.1-Q209L) per well. Twenty-four (24) hours later, the cells were digested, counted and aliquoted into 24 well plates (0.8×10^5 cells/well). After another 24 hours, the transfected cells were incubated with various concentrations of puromycin.
Three days later, the relative cell numbers were detected using MTT assay reagents (CellTiter 96® Aqueous One Solution Cell Proliferation Assay Reagents) as follows. After being thawed at room temperature, 40 μl the CellTiter 96® Aqueous One Solution Reagent was pipetted into each well of the 24-well assay plate containing the samples in 200 μl of culture medium. Then, the plates were incubated at 37° C. for 2 hours in a humidified, 5% CO2 atmosphere. The supernatants were transferred into 96-well plates. The absorbance at 490 nm of each sample was read by using a plate reader (SpectraMax M5). Optical density directly correlated with viable cell quantity.
A software program (GraphPad Prism) was used to generate Dose Response Curves. A non-linear regression was done to graph the Log [puromycin molar concentration] versus Maximal Inhibitory Response. The GraphPad program was used to calculate the IC50 of puromycin for each cell line (dose that gives a 50% maximal response) and the 95% confidence intervals. A 2-way ANOVA (Dose by Construct) was done to determine if there is a significant effect of construct upon puromycin effect with p-value of <0.05 used to determine significance.

[2] = test system: HEK293T cells with GNAQ constructs; test: Western blot of protein levels after puromycin treatment; type: cell-based, human
Procedure: Treated cells were harvested with ice-cold radioimmunoprecipitation assay (RIPA) buffer (150 mM NaCl, 1.0% IGEPAL® CA-630, 0.5% sodium deoxycholate, 0.1% SDS, and 50 mM Tris, pH 8.0) (Sigma-Aldrich) plus phosphatase inhibitor cocktail (Cell signaling technology, #5870) and analyzed by western blot as follows: Quantitative protein samples were denatured in 4×LDS Sample buffer (Invitrogen) at 100° C. for 6 minutes. Samples were then subjected to SDS-PAGE by using Bio-Rad 4-15% gradient gels and transferred to PVDF membrane. The membranes were blocked with Li-cor ODYSSEY® Blocking buffer for 30 minutes at room temperature. Then the membranes were incubated with primary antibody (GaQ 1:125, Santa Cruz Biotechnology, sc-393; p-ERK 1:1000, Cell Signaling Technology, 4370; ERK 1:1000, Cell signaling Technology, 4696; HSP90 1:1000, Cell Signaling Technology, 4877) in a 1:1 solution of Li-cor ODYSSEY® blocking buffer and Tris-Buffered Saline and 0.1% Tween 20 (TBST) overnight at 4° C. The membranes were then washed three times for 10 min each in Tris-Buffered Saline and 0.1% Tween 20 (TBST) then probed with goat anti-mouse (IR-Dye 680RD) or goat anti Rabbit (IR-Dye-800CW) labeled secondary antibody in 1:1 Li-cor ODYSSEY® blocking buffer to TBST for 1 hour at room temperature. […] Bands were quantified using Image J software program.

[3] = test system: HEK293T cells with pcDNA3.1-E, -GNAQ, -R183Q or -Q209L plasmids; test: RT-PCR gene expression with or without puromycin treatment; type: cell-based, human
Procedure: A panel of genes, important to the regulation of the pathways downstream of GNAQ, were evaluated by RT-PCR in mRNA samples gathered from cells with the pcDNA3.1-E, pcDNA3.1-GNAQ, pcDNA3.1-R183Q or pcDNA3.1-Q209L plasmids with or without puromycin treatment of 0.04 ug/ul (FIGS. 6A-6F, n=3 per group from 3 separate experiments).
HEK293T cells (5×10^5 cells/well) were transfected with 1 μg plasmid (pcDNA3.1-GNAQ, pcDAN3.1-R183Q or pcDNA3.1-Q209L) in 6-well plates. Twenty-four (24) hours later, cells were digested and re-plated into 6-well plates. Twenty-four (24) hours later, the plates were incubated in DMEM (10% FBS) with or without 0.04 μg/ml puromycin. Three days later, total RNA of treated HEK293T cells were isolated by using RNEASY® Mini Kit (QIAGEN) as follows. Media was aspirated, and the cells washed twice with PBS. 350 μl Buffer RLT with B-Mercaptoethanol was added to the each well. The lysate was pipetted into a microcentrifuge tube and pipetted to mix. 1 volume of 70% ethanol was added to the lysate. Lysate was transferred to an RNEASY® spin column placed in a 2 ml collection tube (supplied) and centrifuged. RNEASY® spin column was washed as per kit instructions. 50 μl RNase-free water was added directly to the center of the spin column membrane which was centrifuged for 1 min at 12,000 rpm to elute the RNA. Three separate experiments were performed to obtain triplicate mRNA and protein samples for analysis.
Reverse Transcription was carried out with the using the High Capacity cDNA Reverse Transcription Kits and based on Applied Biosystems' protocol. 2×RT master mix is prepared using the kit components before preparing the reaction plate and kit components allowed to thaw on ice. Referring to one reaction amount of components, the volume of components needed to prepare the required number of reactions was calculated. Then 10 μl of 2×RT master mixes was pipetted into each well of 500 μl PCR clean tubes. 10 μL of RNA sample (1 μg) was pipetted into each tube which is then mixed, centrifuged and then placed in a thermal cycler with the program of (10 min at 25° C., 120 min at 37° C., 5 min at 85° C., then 4° C.). After the thermal cycler, 1 μl RNase H was added into the tubes and incubated at 37° C. for 20 min. Finally, 600 μl Nuclease-free H2O was added into each tube.
The primers for Real-Time PCR were designed online with Primer-BLAST software tool. For each gene, at least three primers at different locations were designed based on the cDNA of the genes. The primer concentrations were normalized and were adjusted to 5 pmol/μ1. The real-time PCR reaction mixture of 20 μl included 10 μl SYBR Green Mix (2×), 2 μl primer pair mix, and 8 μl diluted cDNA solution. The Real-time PCR of loaded samples were run on CFX Connect™ real-time PCR system (Bio-rad) with extension steps of (50° C. 2 min 1 cycle, 95° C. 10 min 1 cycle, 95° C. 15 sec then 60° C. 1 min 40 cycles, 72° C. 10 min, 1 cycle) followed by a melting curve analysis (from 55° C. to 95° C. increments 0.05° C./Sec) to guarantee absence of nonspecific amplification. The primers with a unique peak in melting curve were chosen for next step. The primers were also only used for next experiments after they were confirmed by obtaining the same results from other primers for the same gene. With the final confirmed primers, the RNA levels in triplicate samples, obtained from three separate experiments, were measured.

[4] = test system: HEK293T cells transiently transfected with pcDNA3.1-E, pcDNA3.1-GNAQ, pcDNA3.1-R183Q, pcDNA3.1-Q209L; test: Puromycin dose response curve, CellTiter 96 cell proliferation assay, 96-well plates; type: cell-based; conditions: Homo sapiens, HEK-293T, 72 h, 3 days, read-out: half maximal inhibitory concentration (IC50)
Procedure: FIG. 5 is a plot showing a dose response curve for puromycin. HEK 293T cells (5×10^5 cells/well in six-well plate) were transiently transfected with pcDNA3.1-E, pcDNA3.1-GNAQ, pcDNA3.1-R183Q, pcDNA3.1-Q209L. Twenty-four (24) hours later, the cells were digested, counted and aliquoted into 96-well plates. Twenty-four (24) hours later, the cells were incubated with a series of puromycin concentrations. Three days later, the relative cell numbers were detected using a cell proliferation assay.
A dose response curve (cell number in response to puromycin concentration) for HEK293T cells transiently transfected pcDNA3.1-E, pcDNA3.1-GNAQ, pcDNA3.1-R183Q and pcDNA3.1-Q209L and treated with puromycin is shown in FIG. 5. Cells expressing either the pcDNA3.1-R183Q or pcDNA3.1-Q209L plasmids were more sensitive to puromycin compared with cells transfected with the pcDNA3.1-E or pcDNA3.1-GNAQ plasmids.
HEK293T cells (5×10^5 cells/well) in 6 well-plates were transiently transfected with 1 μg (pcDNA3.1-E, pcDNA3.1-GNAQ, pcDAN3.1-R183Q and pcDNA3.1-Q209L) per well using FUGENE 6®. Twenty-four (24) hours later, the cells were digested, counted and aliquoted into 96-well plates (1×10^4 cells/well). After another 24 hours, the transfected cells were incubated with a 100-fold concentration series of puromycin. Three days later, the relative cell numbers were detected using CELLTITER 96® Aqueous One Solution Cell Proliferation Assay Reagents (Promega #G3582) as follows: After being thawed at room temperature, 10 μl of CELLTITER 96® Aqueous One Solution Reagent was pipet into each well of the 96-well assay plate containing the samples in 100 μl of culture medium. Then, the plates were incubated at 37° C. for 2 hours in a humidified, 5% CO2 atmosphere. The absorbance at 490 nm of each sample was read by using SpectraMAX M5. Readings were normalized to that in pcDNA3.1-GNAQ cells receiving vehicle. Results were analyzed in GraphPad. Experiment was done in quadruplicate samples.

[5] = test system: untransformed HMECs; test: Puromycin dose response curve in untransformed HMECs; type: cell-based, human; conditions: 1 ug/ml puromycin, after 48 hours
[6] = all three constructs, puromycin alone, significant

COc1ccc(C[C@H](N)C(=O)N[C@H]2[C@@H](O)[C@H](n3cnc4c(N(C)C)ncnc43)O[C@@H]2CO)cc1 [puromycin]
IC50 ([1]; Q209L construct): 190 nM
IC50 ([1]; R183Q construct): 190 nM
IC50 ([1]; empty construct): 290 nM
IC50 ([1]; wildtype GNAQ construct): 290 nM
ID3 protein levels ([2]; puromycin treatment, pcDNA3.1-GNAQ, pcDNA3.1-R183Q or pcDNA3.1-Q209L cells): further increased
Gαq protein levels ([2]; puromycin versus vehicle treated cells): No significant differences
ID3 mRNA levels ([3]; R183Q and Q209L mutant cells, puromycin, compared to wildtype puromycin treated and vehicle treated mutant cells): upregulated
TRIO mRNA levels ([3]; all three constructs, puromycin alone, not significant): up-regulated
PRKCQ mRNA levels [3, 6]: up-regulated
TEAD3 mRNA levels [3, 6]: up-regulated
PIK3C2B mRNA levels ([3]; all three constructs, puromycin alone, significant only in Q209L cells): up-regulated
TSC22D3 mRNA levels ([3]; cells expressing R183Q or Q209L plasmids, puromycin 0.04 ug/ml): further decreased
ID3 mRNA levels ([3]; wildtype cells, puromycin 0.04 ug/ml, compared to vehicle treated): up-regulated
TSC22D3 mRNA expression ([3]; wildtype cells, puromycin 0.04 ug/ml, compared to vehicle treated wildtype): decreased
IC50 ([4]; HEK293T with pcDNA3.1-E (empty)): 0.084 µg/mL (≈ 0.178 µM)
IC50 ([4]; HEK293T with pcDNA3.1-GNAQ (wildtype)): 0.091 µg/mL (≈ 0.193 µM)
IC50 ([4]; HEK293T with pcDNA3.1-Q209L): 0.051 µg/mL (≈ 0.108 µM)
IC50 ([4]; HEK293T with pcDNA3.1-R183Q): 0.064 µg/mL (≈ 0.136 µM)
cells killed [5]: 100%

— patent US11452737B2, “Compositions and methods for treating vascular malformation and related conditions” (priority 2015, dated 2022)
